Measurements: patent US11702393B2, “Synthesis of a monoacylglycerol lipase inhibitor” (H. LUNDBECK A/S, priority 2020, dated 2023)
Read-outs that look alike come from different tables or passages of the source.

Columns and labels:
[1] = Particle size distribution determination by image analysis (Morphologi G3); format: physicochemical
Description: The term “particle size distribution” (PSD) as used herein refers to the mean particle size from a statistical distribution of a range of particle sizes. The Compound I-HCl form 2 particle size distribution, in particular d90, d50, d10 values, may be determined by well-known methods of the prior art such as sieve analysis, laser diffraction methods, image analysis or optical counting methods.
As used herein, by “d90 particle size” refers to the particle diameter wherein 90 percent of the particle population has a diameter below such value.
As used herein, by “d50 particle size” refers to the median particle diameter, wherein half of the particle population has a diameter below such value.
As used herein, by “d10 particle size” refers to the particle diameter wherein 10 percent of the particle population has a diameter below such value.
The analysis of particle size distribution of each batch was performed by an image analysis method on a Morphologi G3 Automated Particle Characterization System (Malvern PaNanalytical) with a sample Dispersion Unit SDU Glass Plate (180×110 mm); the instrument automatically process the collected data using the software Morphologi ver. 8.20 and provides a cumulative distribution curve and results in terms of d10, d50 and d90.

[2] = process described in the prior art (WO2018/093953); cited from earlier work
[3] = made according to Example 13, not milled
[4] = made from Example 13, after milling (hammer mill, Example 14)

d10 particle size [1, 3]: d10 53.5 μm
d50 particle size [1, 3]: d50 133.1 μm
d90 particle size [1, 3]: d90 201.7 μm
d10 particle size [1, 4]: d10 24 μm
d50 particle size [1, 4]: d50 67 μm
d90 particle size [1, 4]: d90 175 μm
Structure (SMILES): Cl.O=C(OC(C(F)(F)F)C(F)(F)F)N1CCN(Cc2ccc(C(F)(F)F)cc2N2CCCC2)CC1 [Compound I-HCl form 2, 1,1,1,3,3,3-hexafluoropropan-2-yl 4-(2-(pyrrolidin-1-yl)-4-(trifluoromethyl)benzyl)piperazine-1-carboxylate mono-hydrochloride salt Form 2]
d10 particle size [2]: ≥ 5 µm
d90 particle size [2]: up to 300 μm
